Values after ≈ are worked out from the molar mass of the structure shown.
Assays:
[1] = test system: Staphylococcus aureus; assay: Antibacterial activity against methicillin resistant Staphylococcus aureus isolate 3 after 18 hrs by microdilution method; type: functional; conditions: isolate 3, 18 h
[2] = test system: Staphylococcus aureus; assay: Antibacterial activity against methicillin resistant Staphylococcus aureus isolate 4 after 18 hrs by microdilution method; type: functional; conditions: isolate 4, 18 h
[3] = test system: Staphylococcus aureus; assay: Antibacterial activity against Staphylococcus aureus ATCC 4163 after 18 hrs by microdilution method; type: functional; conditions: ATCC 4163, 18 h
[4] = test system: Staphylococcus aureus; assay: Antibacterial activity against methicillin resistant Staphylococcus aureus isolate 5 after 18 hrs by microdilution method; type: functional; conditions: isolate 5, 18 h
[5] = test system: Pseudomonas aeruginosa; assay: Antibacterial activity against Pseudomonas aeruginosa NCTC 6749 after 18 hrs by microdilution method; type: functional; conditions: NCTC 6749, 18 h
[6] = test system: Staphylococcus aureus; assay: Antibacterial activity against Staphylococcus aureus ATCC 25923 after 18 hrs by microdilution method; type: functional; conditions: ATCC 25923, 18 h
[7] = test system: Staphylococcus aureus; assay: Antibacterial activity against Staphylococcus aureus ATCC 6538 after 18 hrs by microdilution method; type: functional; conditions: ATCC 6538, 18 h
[8] = test system: Escherichia coli; assay: Antibacterial activity against Escherichia coli ATCC 25922 after 18 hrs by microdilution method; type: functional; conditions: ATCC 25922, 18 h
[9] = test system: Staphylococcus epidermidis; assay: Antibacterial activity against Staphylococcus epidermidis ATCC 12228 after 18 hrs by microdilution method; type: functional; conditions: ATCC 12228, 18 h
[10] = test system: Staphylococcus epidermidis; assay: Antibacterial activity against Staphylococcus epidermidis ATCC 49134 after 18 hrs by microdilution method; type: functional; conditions: ATCC 49134, 18 h
[11] = test system: Staphylococcus aureus; assay: Antibacterial activity against methicillin resistant Staphylococcus aureus isolate 2 after 18 hrs by microdilution method; type: functional; conditions: isolate 2, 18 h
[12] = test system: Staphylococcus aureus; assay: Antibacterial activity against methicillin resistant Staphylococcus aureus isolate 1 after 18 hrs by microdilution method; type: functional; conditions: isolate 1, 18 h
[13] = Solubility in water at pH 7 by UV-vis spectrophotometric analysis; type: physicochemical
[14] = Octanol-water partition coefficient, logP of the compound after 1 hr by UV-vis spectrophotometric analysis; type: physicochemical

| Structure (SMILES) | MIC [1] [mg/L] | MIC [2] [mg/L] | MIC [3] [mg/L] | MIC [4] [mg/L] | MIC [5] [mg/L] | MIC [6] [mg/L] | MIC [7] [mg/L] | MIC [8] [mg/L] | MIC [9] [mg/L] | MIC [10] [mg/L] | MIC [11] [mg/L] | MIC [12] [mg/L] | solubility [13] [mg/mL] | logP at 1 h [14] |
| --- | --- | --- | --- | --- | --- | --- | --- | --- | --- | --- | --- | --- | --- | --- |
| CO[C@H]1/C=C/O[C@@]2(C)Oc3c(C)c(O)c4c(O)c(c(C=O)c(O)c4c3C2=O)NC(=O)/C(C)=C\C=C\[C@H](C)[C@H](O)[C@@H](C)[C@@H](O)[C@@H](C)[C@H](OC(C)=O)[C@@H]1C | > 2 | > 2 | 2 (≈ 2.76 µM) | > 2 | > 2 | > 2 | > 2 | > 2 | 1 (≈ 1.38 µM) | 1 (≈ 1.38 µM) | > 2 | > 2 | – | – |
| CO[C@H]1/C=C/O[C@@]2(C)Oc3c(C)c(O)c4c(O)c(c(CN[C@@H](Cc5ccccc5)C(=O)OC(C)(C)C)c(O)c4c3C2=O)NC(=O)/C(C)=C\C=C\[C@H](C)[C@H](O)[C@@H](C)[C@@H](O)[C@@H](C)[C@H](OC(C)=O)[C@@H]1C | – | 0.5 (≈ 0.537 µM) | 0.5 (≈ 0.537 µM) | 0.5 (≈ 0.537 µM) | > 2 | 1 (≈ 1.07 µM) | 0.5 (≈ 0.537 µM) | > 2 | 0.125 (≈ 0.134 µM) | 0.25 (≈ 0.269 µM) | – | 0.5 (≈ 0.537 µM) | 0.03 (≈ 32.2 µM) | 2.66 |
| CCOC(=O)[C@H](CCCCN)NCc1c2c(O)c3c(O)c(C)c4c(c3c1O)C(=O)[C@@](C)(O/C=C/[C@H](OC)[C@@H](C)[C@@H](OC(C)=O)[C@H](C)[C@H](O)[C@H](C)[C@@H](O)[C@@H](C)/C=C/C=C(/C)C(=O)N2)O4 | > 2 | – | 2 (≈ 2.26 µM) | – | – | > 2 | 2 (≈ 2.26 µM) | – | 0.5 (≈ 0.566 µM) | 1 (≈ 1.13 µM) | > 2 | > 2 | 0.12 (≈ 136 µM) | 2.2 |
| CCOC(=O)[C@H](Cc1ccc(O)cc1)NCc1c2c(O)c3c(O)c(C)c4c(c3c1O)C(=O)[C@@](C)(O/C=C/[C@H](OC)[C@@H](C)[C@@H](OC(C)=O)[C@H](C)[C@H](O)[C@H](C)[C@@H](O)[C@@H](C)/C=C/C=C(/C)C(=O)N2)O4 | – | 0.5 (≈ 0.544 µM) | 0.5 (≈ 0.544 µM) | 0.5 (≈ 0.544 µM) | > 2 | 2 (≈ 2.18 µM) | 0.5 (≈ 0.544 µM) | > 2 | 0.063 (≈ 0.0686 µM) | 0.125 (≈ 0.136 µM) | – | 0.5 (≈ 0.544 µM) | 0.05 (≈ 54.4 µM) | 1.92 |
| COC(=O)[C@H](Cc1ccc(O)cc1)NCc1c2c(O)c3c(O)c(C)c4c(c3c1O)C(=O)[C@@](C)(O/C=C/[C@H](OC)[C@@H](C)[C@@H](OC(C)=O)[C@H](C)[C@H](O)[C@H](C)[C@@H](O)[C@@H](C)/C=C/C=C(/C)C(=O)N2)O4 | 1 (≈ 1.1 µM) | 0.5 (≈ 0.552 µM) | 0.5 (≈ 0.552 µM) | 0.5 (≈ 0.552 µM) | > 2 | 1 (≈ 1.1 µM) | 0.5 (≈ 0.552 µM) | > 2 | 0.063 (≈ 0.0696 µM) | 0.125 (≈ 0.138 µM) | 1 (≈ 1.1 µM) | 0.5 (≈ 0.552 µM) | 0.06 (≈ 66.3 µM) | 1.88 |
| COC(=O)[C@H](Cc1ccccc1)NCc1c2c(O)c3c(O)c(C)c4c(c3c1O)C(=O)[C@@](C)(O/C=C/[C@H](OC)[C@@H](C)[C@@H](OC(C)=O)[C@H](C)[C@H](O)[C@H](C)[C@@H](O)[C@@H](C)/C=C/C=C(/C)C(=O)N2)O4 | – | 0.063 (≈ 0.0709 µM) | 0.063 (≈ 0.0709 µM) | 0.063 (≈ 0.0709 µM) | > 2 | 0.125 (≈ 0.141 µM) | 0.063 (≈ 0.0709 µM) | > 2 | 0.031 (≈ 0.0349 µM) | 0.031 (≈ 0.0349 µM) | – | 0.125 (≈ 0.141 µM) | 0.07 (≈ 78.7 µM) | 2.47 |
| COC(=O)[C@H](Cc1cnc[nH]1)NCc1c2c(O)c3c(O)c(C)c4c(c3c1O)C(=O)[C@@](C)(O/C=C/[C@H](OC)[C@@H](C)[C@@H](OC(C)=O)[C@H](C)[C@H](O)[C@H](C)[C@@H](O)[C@@H](C)/C=C/C=C(/C)C(=O)N2)O4 | 1 (≈ 1.14 µM) | – | 0.25 (≈ 0.284 µM) | – | – | 1 (≈ 1.14 µM) | 0.25 (≈ 0.284 µM) | – | 0.25 (≈ 0.284 µM) | 0.125 (≈ 0.142 µM) | 1 (≈ 1.14 µM) | 0.5 (≈ 0.569 µM) | 0.15 (≈ 171 µM) | 1.72 |
| CCOC(=O)[C@H](Cc1c[nH]c2ccccc12)NCc1c2c(O)c3c(O)c(C)c4c(c3c1O)C(=O)[C@@](C)(O/C=C/[C@H](OC)[C@@H](C)[C@@H](OC(C)=O)[C@H](C)[C@H](O)[C@H](C)[C@@H](O)[C@@H](C)/C=C/C=C(/C)C(=O)N2)O4 | 0.5 (≈ 0.531 µM) | 0.5 (≈ 0.531 µM) | 0.5 (≈ 0.531 µM) | 0.5 (≈ 0.531 µM) | > 2 | 1 (≈ 1.06 µM) | 0.25 (≈ 0.265 µM) | > 2 | 0.063 (≈ 0.0669 µM) | 0.063 (≈ 0.0669 µM) | 0.5 (≈ 0.531 µM) | 0.5 (≈ 0.531 µM) | 0.03 (≈ 31.8 µM) | 2.48 |
| CCOC(=O)[C@H](Cc1ccccc1)NCc1c2c(O)c3c(O)c(C)c4c(c3c1O)C(=O)[C@@](C)(O/C=C/[C@H](OC)[C@@H](C)[C@@H](OC(C)=O)[C@H](C)[C@H](O)[C@H](C)[C@@H](O)[C@@H](C)/C=C/C=C(/C)C(=O)N2)O4 | 0.125 (≈ 0.138 µM) | 0.125 (≈ 0.138 µM) | 0.063 (≈ 0.0698 µM) | 0.125 (≈ 0.138 µM) | > 2 | 0.125 (≈ 0.138 µM) | 0.063 (≈ 0.0698 µM) | > 2 | 0.063 (≈ 0.0698 µM) | 0.125 (≈ 0.138 µM) | 0.125 (≈ 0.138 µM) | 0.063 (≈ 0.0698 µM) | 0.05 (≈ 55.4 µM) | 2.63 |
| CO[C@H]1/C=C/O[C@@]2(C)Oc3c(C)c(O)c4c(O)c(c(CN[C@@H](Cc5ccccc5)C(=O)OCc5ccccc5)c(O)c4c3C2=O)NC(=O)/C(C)=C\C=C\[C@H](C)[C@H](O)[C@@H](C)[C@@H](O)[C@@H](C)[C@H](OC(C)=O)[C@@H]1C | – | 1 (≈ 1.04 µM) | 0.5 (≈ 0.518 µM) | 1 (≈ 1.04 µM) | > 2 | 2 (≈ 2.07 µM) | 0.5 (≈ 0.518 µM) | > 2 | 0.125 (≈ 0.13 µM) | 0.25 (≈ 0.259 µM) | – | 1 (≈ 1.04 µM) | 0.02 (≈ 20.7 µM) | 2.75 |
| COC(=O)[C@H](Cc1c[nH]c2ccccc12)NCc1c2c(O)c3c(O)c(C)c4c(c3c1O)C(=O)[C@@](C)(O/C=C/[C@H](OC)[C@@H](C)[C@@H](OC(C)=O)[C@H](C)[C@H](O)[C@H](C)[C@@H](O)[C@@H](C)/C=C/C=C(/C)C(=O)N2)O4 | – | 0.063 (≈ 0.0679 µM) | 0.031 (≈ 0.0334 µM) | 0.063 (≈ 0.0679 µM) | > 2 | 0.063 (≈ 0.0679 µM) | 0.031 (≈ 0.0334 µM) | > 2 | 0.016 (≈ 0.0172 µM) | 0.016 (≈ 0.0172 µM) | – | 0.031 (≈ 0.0334 µM) | 0.06 (≈ 64.7 µM) | 2.22 |
| CCOC(=O)[C@H](CCCNC(=N)N)NCc1c2c(O)c3c(O)c(C)c4c(c3c1O)C(=O)[C@@](C)(O/C=C/[C@H](OC)[C@@H](C)[C@@H](OC(C)=O)[C@H](C)[C@H](O)[C@H](C)[C@@H](O)[C@@H](C)/C=C/C=C(/C)C(=O)N2)O4 | 2 (≈ 2.19 µM) | – | 1 (≈ 1.1 µM) | – | – | > 2 | 1 (≈ 1.1 µM) | – | 0.25 (≈ 0.274 µM) | 0.5 (≈ 0.548 µM) | 2 (≈ 2.19 µM) | 2 (≈ 2.19 µM) | 0.09 (≈ 98.7 µM) | 2.22 |
| CO[C@H]1/C=C/O[C@@]2(C)Oc3c(C)c(O)c4c(O)c(c(CN[C@@H](Cc5c[nH]c6ccccc56)C(=O)OCc5ccccc5)c(O)c4c3C2=O)NC(=O)/C(C)=C\C=C\[C@H](C)[C@H](O)[C@@H](C)[C@@H](O)[C@@H](C)[C@H](OC(C)=O)[C@@H]1C | – | 1 (≈ 0.996 µM) | 1 (≈ 0.996 µM) | 1 (≈ 0.996 µM) | > 2 | 2 (≈ 1.99 µM) | 1 (≈ 0.996 µM) | > 2 | 0.25 (≈ 0.249 µM) | 0.25 (≈ 0.249 µM) | – | 1 (≈ 0.996 µM) | < 0.01 | 2.72 |
| CO[C@H]1/C=C/O[C@@]2(C)Oc3c(C)c(O)c4c(O)c(c(/C=N/N5CCN(C)CC5)c(O)c4c3C2=O)NC(=O)/C(C)=C\C=C\[C@H](C)[C@H](O)[C@@H](C)[C@@H](O)[C@@H](C)[C@H](OC(C)=O)[C@@H]1C [RIFAMPIN] | 0.016 (≈ 0.0194 µM) | 0.016 (≈ 0.0194 µM) | 0.008 (≈ 0.00972 µM) | 0.016 (≈ 0.0194 µM) | > 2 | 0.016 (≈ 0.0194 µM) | 0.008 (≈ 0.00972 µM) | > 2 | 0.004 (≈ 0.00486 µM) | 0.008 (≈ 0.00972 µM) | 0.016 (≈ 0.0194 µM) | 0.016 (≈ 0.0194 µM) | – | – |
